Key:
hexosaminidase = conditions: read-out: Ki against hexosaminidase; cited from earlier work
cultured chondrocytes = conditions: cited from earlier work
[1] = system: rabbit knee after ACL transection; test: ACL transection (ACLT) osteoarthritis model in the rabbit knee, continuous intra-articular infusion; type: in vivo; conditions: 8 weeks after ACLT; for chondro-degenerative pathology to the knee joint: 30 mM via Alzet pump 2.5 μl/hour intra-articular, vs saline-treated animals
Procedure: The model used in this study is the transection of the anterior cruciate ligament (ACL) in the rabbit knee. ACL transection (ACLT) causes joint instability and subsequent development of degradative and osteoarthritis-like changes.
Female New Zealand White rabbits, 3.0-3.5 kg, were used and were randomly allocated into groups of 8 rabbits. Group A was the saline-treated control group; Group B was treated with 30 mM of the hexosaminidase inhibitor (2R,3R,4R,5R)-N-methyl-(2-acetamidomethyl-3,4-dihydroxy-5-hydroxymethyl)-pyrrolidine, which is also known as OPT-66. All the compounds were delivered by a 2ml Alzet osmotic pump (Alzet 2ML4, Alza, USA). The delivery rate from the pump was 2.5 μl/hour. All rabbits received ACLT surgery on the right knee.
All rabbits were anesthetized by an intramuscular injection of ketamine (35 mg/kg) and acepromazine (2.5 mg/kg). Knees were shaved and disinfected with Antibex (Vetoquinol S.A.) solution. A medial parapatellar incision was made on the skin and a medial arthrotomy was performed. The patella was dislocated laterally and the knee was placed in full flexion. The ACL was visualized and transected with a #15 blade. Complete transection was confirmed by a manual anterior drawer test. The joint was irrigated with sterile saline then closed. Before the closure of knee joint, an Alzet pump prefilled with compounds (either with saline or with the hexosaminidase inhibitor (2R,3R,4R,5R)-N-methyl-(2-acetamidomethyl-3,4-dihydroxy-5-hydroxymethyl)-pyrrolidine, also known as OPT-66, was implanted subcutaneously in the lower right abdomen of rabbits. The pump was connected by polyethylene tubing (ID: 0.58 mm), which was inserted into the right knee joint with its tip resting in the synovial space. The joint capsule was closed with a running suture and the tubing connecting the pump was also fixed into the tissue. The skin was closed with interrupted sutures. The Alzet pumps were replaced with fresh units at the end of the fourth week after the operation.
The animals were sacrificed eight (8) weeks after ACLT. The gross morphological changes of both knees, including joint swelling and joint fluid, were evaluated.
The grading of the joint swelling is as following: 0 (normal); 1 (mild), inflammation and/or proliferation of the joint capsule; 2 (moderate), thickening of joint capsule and/or inflammation of the synovium; 3 (severe) abundant inflammation of the synovium, swelling of the menisci or ligaments (anterior or posterior cruciate ligaments).

[2] = system: IL-1β-infused rabbit knee joint (tibial plateau cartilage); test: IL-1β-induced sGAG loss in rabbit knee cartilage, continuous intra-articular infusion; type: in vivo
Procedure: Female New Zealand White rabbits, 3.0-3.5 kg, were used and were randomly allocated into groups of 8 rabbits. Under aseptic conditions, 2 ml Alzet osmotic pumps (delivery flow rate: 10 μl/h, (Alzet 2ML1, Alza, USA)) were filled with IL-1β (1000 U/ml; R&D Systems, USA). Separate 2 ml Alzet pumps were filled with 30 mM of the hexosaminidase inhibitor (2R,3R,4R,5R)-N-methyl-(2-acetamidomethyl-3,4dihydroxy-5-hydroxymethyl)-pyrrolidine, also known as OPT-66, or with saline. The Alzet pumps were implanted subcutaneously in the lower abdomen of rabbits, and were connected by a polyethylene tubing (ID: 0.025 in) threaded subcutaneously to the left knee joint with their tips resting in the synovial space. The untreated contralateral knees of all animals served as negative controls. IL-1β and (2R,3R,4R,5R)-N-methyl-(2-acetamidomethyl-3,4-diydroxy-5-hydroxymethyl)-pyrrolidine were infused intra-articularly for 7 days. Immediately before surgery, and for 3 consecutive days thereafter, Marbocyl, 6 mg/kg/day, is administered (i.m.) to prevent infection. Animals were harvested on day 7. […]
Blyscan dye (Biocolor, USA) was added to each tube and vortexed. […] The absorbance of the sample was then observed at 656 nm using a spectrophotometer. […] The absorbance of the blank was subtracted from each sample. Results are expressed as micrograms of sGAG recovered per milligram wet weight of cartilage tissue.

CC(=O)NCC1C(O)[C@H](O)C(CO)N1C (stereo partly drawn) [OPT-66, (2R,3R,4R,5R)-N-methyl-(2-acetamidomethyl-3,4-dihydroxy-5-hydroxymethyl)-pyrrolidine]
Ki (hexosaminidase): 24 nM | cytokine-induced loss of GAGs (cultured chondrocytes): preventing cytokine-induced loss of GAGs | chondro-degenerative pathology to the knee joint [1]: consistently less chondro-degenerative pathology | chondro-degenerative pathology to the knee joint ([1]; listed as specific hexosaminidase inhibitor): chondroprotective benefit | severity of femur lesion scores ([1]; 30 mM via Alzet pump, vs saline-treated animals (FIG. 1)): statistically significant decrease | severity of tibia lesion scores ([1]; 30 mM via Alzet pump, vs saline-treated animals (FIG. 2)): statistically significant decrease | joint swelling grading ([1]; 30 mM via Alzet pump, vs saline-treated animals (FIG. 3)): trend towards decreased joint-swelling | synovial (joint) fluid grading ([1]; 30 mM via Alzet pump, vs saline-treated animals (FIG. 4)): normal levels of fluid in the knee joint | amount of recoverable sGAG per wet weight of left tibial plateau cartilage ([2]; IL-1β 1000 U/ml plus 30 mM inhibitor infused intra-articularly for 7 days (FIG. 5)): approximately 41 μg/mg | increase of recoverable sGAG over saline-treated knees ([2]; IL-1β plus 30 mM inhibitor infused intra-articularly for 7 days): 24%
